Laboratory results as given in patent US20080171117A1, “METHODS FOR REDUCING MICROBIAL CONTAMINATION IN SEAFOOD PROCESSING” (Tasker Products Corp., priority 2004, published 2008).

Experiments:
Coliform = assay: Treated salmon under refrigeration: Coliform; settings: Treated With O3
SPC = assay: Treated salmon under refrigeration: SPC; settings: Treated With O3

Q: Which results are given for `O=[O+][O-]` [O3, Ozone]?
A: Coliform (Coliform; day 3): 0.5; Coliform (Coliform; day 6): 0.5; Coliform (Coliform; day 8): 0.5; Coliform (Coliform; day 9): 0.5; Coliform (Coliform; day 10): 0.5; Log SPC (SPC; day 3): 0; SPC (SPC; day 3): 1; Log SPC (SPC; day 6): 0; SPC (SPC; day 6): 1; Log SPC (SPC; day 8): 1.643; SPC (SPC; day 8): 44; Log SPC (SPC; day 9): 0; SPC (SPC; day 9): 1; Log SPC (SPC; day 10): 1.146; SPC (SPC; day 10): 14
